The values below come from patent publication US4521423A, “7,8,9,10-Tetrahydrobenzo[h]quinolin-9-amine derivatives and compositions and methods for treating depression employing them” (Ayerst, McKenna & Harrison, Ltd., priority 1983, dated 1985).

One assay concerns norepinephrine uptake. Briefly: in vitro [3H]norepinephrine uptake inhibition, rat brain preparation. It counts as biochemical. The note with it: concentration of 1×10^-6 moles. The text has this:
(§1) For example, the ability of the present compounds to block substantially the uptake of norepinephrine and serotonin, characteristic properties of antidepressants, can be shown in the in vitro test using rat brain preparation as described by M. H. Kannengiesser, P. Hunt and J.-P. Raynaud, Biochem. Pharmacol., 22, 73 (1973); see also E. G. Shaskan and S. H. Snyder, J. Pharmacol. Exptl. Therap., 175, 404 (1970), and J. Glowinski and L. L. Iversen, J. Neurochemistry, 13, 655 (1966).

For another assay, the system named is serotonin uptake. Briefly: in vitro [3H]serotonin uptake inhibition, rat brain preparation. The assay is classed as biochemical. Conditions: concentration of 1×10^-6 moles.
Description: as §1

For the molecule `CCCN(CCC)C1CCc2ccc3cccnc3c2C1` (centres unmarked) [7,8,9,10-Tetrahydro-N,N-dipropylbenzo[h]quinolin-9-amine], in the assay on norepinephrine uptake, the “inhibition of [3H]norepinephrine uptake” value came to 52%. Moreover, the “inhibition of [3H]serotonin uptake” value in the assay on serotonin uptake came out at 57%.
